Source: patent US20230026360A1, “DETECTION OF MOLECULAR INTERACTIONS” (Orionis Biosciences, Inc., priority 2019, published 2023)

Columns and labels:
Format in all cases: cell-based
CRBN-IKZF1 interaction [1] = molecular target: T1, CRBN-IKZF1 interaction (Homo sapiens, UniProt Q96SW2); experiment: MAPPIT forward assay, CRBN receptor fusion + IKZF1 gp130 fusion; settings: forward configuration; HEK293T cells; EPO; dose-response; IKZF1 isoform 7
T1 construct: expressed in transfected cells; host or cells: HEK293T
T1 sequence (Q96SW2 whole entry, the tested form may be a part, canonical isoform): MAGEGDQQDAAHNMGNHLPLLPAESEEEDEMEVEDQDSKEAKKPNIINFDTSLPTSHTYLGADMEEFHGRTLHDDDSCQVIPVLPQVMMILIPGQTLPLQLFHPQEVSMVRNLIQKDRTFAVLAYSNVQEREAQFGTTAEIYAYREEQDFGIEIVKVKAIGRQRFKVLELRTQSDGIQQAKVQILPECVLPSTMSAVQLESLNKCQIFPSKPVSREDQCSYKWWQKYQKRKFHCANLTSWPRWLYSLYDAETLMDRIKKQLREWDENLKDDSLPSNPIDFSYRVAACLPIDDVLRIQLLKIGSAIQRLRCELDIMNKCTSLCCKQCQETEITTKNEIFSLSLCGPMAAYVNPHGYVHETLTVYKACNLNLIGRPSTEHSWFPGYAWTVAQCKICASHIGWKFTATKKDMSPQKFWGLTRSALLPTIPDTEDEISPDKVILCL
T1 sequence (Q13422 1-477 isoform Q13422-7 partner): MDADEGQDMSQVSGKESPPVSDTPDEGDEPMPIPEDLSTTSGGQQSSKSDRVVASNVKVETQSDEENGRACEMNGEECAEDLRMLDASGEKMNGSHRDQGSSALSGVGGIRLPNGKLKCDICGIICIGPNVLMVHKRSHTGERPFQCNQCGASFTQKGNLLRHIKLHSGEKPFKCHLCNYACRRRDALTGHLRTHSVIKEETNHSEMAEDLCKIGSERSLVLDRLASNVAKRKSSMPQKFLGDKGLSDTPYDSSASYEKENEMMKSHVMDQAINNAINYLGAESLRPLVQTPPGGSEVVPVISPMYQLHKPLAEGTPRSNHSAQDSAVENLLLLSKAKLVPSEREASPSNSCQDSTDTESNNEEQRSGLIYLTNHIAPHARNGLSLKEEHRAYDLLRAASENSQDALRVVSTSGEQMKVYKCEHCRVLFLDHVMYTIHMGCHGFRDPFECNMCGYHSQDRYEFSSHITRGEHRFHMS
From the text: (§1) The traditional MAPPIT assay has been used to monitor protein-protein interactions. A bait protein (protein A) is expressed as a fusion protein in which it is genetically fused to an engineered intracellular receptor domain of the leptin receptor, which is itself fused to the extracellular domain of the erythropoietin (Epo) receptor. Binding of Epo ligand to the Epo receptor component results in activation of receptor-associated intracellular JAK2. However, activated JAK2 cannot activate the leptin receptor to trigger STAT3 binding and its phosphorylation because its tyrosine residues, normally phosphorylated by activated JAK2, have been mutated. […] Activation of STAT3 can be monitored by introduction of a STAT3-responsive reporter gene, including a luciferase-encoding gene or a gene encoding a fluorescent marker such as GFP or some other type of Fluorescent Protein (EGFP etc.). […]
(§2) Full size proteins were fused for each of the target/prey proteins tested, except in the case of IKZF1 where isoform 7 was used. […] Luciferase activity was measured 24 hours after test compound treatment using the Luciferase Assay System kit (PROMEGA, Madison, Wis.) with an Ensight plate reader (PERKIN ELMER LIFE SCIENCES, Waltham, Mass.). […]

CRBN-IKZF1 interaction [2] = molecular target: T1, CRBN-IKZF1 interaction; experiment: MAPPIT inverse assay, CRBN gp130 fusion + IKZF1 receptor fusion; settings: inverse configuration; HEK293T cells; EPO; dose-response; IKZF1 isoform 7
From the text: as §1, §2

CRBN-CSNK1A1 interaction = molecular target: T2, CRBN-CSNK1A1 interaction (Homo sapiens, UniProt Q96SW2); experiment: MAPPIT inverse assay with alternative CSNK1A1 receptor fusion (leptin receptor extracellular domain, pCLG-CSNK1A1); settings: inverse configuration, activated with leptin, 0, 0.1, 1, 10 μM, HEK293T
T2 construct: expressed in transfected cells; host or cells: HEK293T
T2 sequence (Q96SW2 whole entry, the tested form may be a part): as the sequence (Q96SW2 whole entry, the tested form may be a part, canonical isoform) above
T2 sequence (P48729 whole entry partner, the tested form may be a part): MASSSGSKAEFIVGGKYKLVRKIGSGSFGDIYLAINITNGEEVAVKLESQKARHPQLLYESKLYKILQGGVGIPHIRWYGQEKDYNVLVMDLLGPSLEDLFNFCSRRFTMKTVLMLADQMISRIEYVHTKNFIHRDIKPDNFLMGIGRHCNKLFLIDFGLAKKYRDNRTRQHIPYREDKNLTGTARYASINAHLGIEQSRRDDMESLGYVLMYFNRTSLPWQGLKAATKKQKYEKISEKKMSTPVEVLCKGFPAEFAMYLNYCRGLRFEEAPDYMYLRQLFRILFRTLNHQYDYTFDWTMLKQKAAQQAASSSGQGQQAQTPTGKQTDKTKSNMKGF
Method: Cells were treated with leptin without or with the indicated dose of test compound at 24 hours after transfection. Luciferase activity was measured 24 hours after test compound treatment using the Luciferase Assay System kit (PROMEGA, Madison, Wis.) with an Ensight plate reader (PERKIN ELMER LIFE SCIENCES, Waltham, Mass.). […] Error bars represent standard deviations.

CRBN-SALL4 interaction = CRBN-SALL4 interaction (Homo sapiens, UniProt Q96SW2); experiment: MAPPIT inverse assay, CRBN gp130 fusion + SALL4 receptor fusion; set-up: expressed in transfected cells; host or cells: HEK293T; settings: inverse configuration; HEK293T cells; EPO; dose-response
Chain of CRBN-SALL4 interaction (Q96SW2 whole entry, the tested form may be a part): as the sequence (Q96SW2 whole entry, the tested form may be a part, canonical isoform) above
Chain of CRBN-SALL4 interaction (Q9UJQ4 whole entry partner, the tested form may be a part): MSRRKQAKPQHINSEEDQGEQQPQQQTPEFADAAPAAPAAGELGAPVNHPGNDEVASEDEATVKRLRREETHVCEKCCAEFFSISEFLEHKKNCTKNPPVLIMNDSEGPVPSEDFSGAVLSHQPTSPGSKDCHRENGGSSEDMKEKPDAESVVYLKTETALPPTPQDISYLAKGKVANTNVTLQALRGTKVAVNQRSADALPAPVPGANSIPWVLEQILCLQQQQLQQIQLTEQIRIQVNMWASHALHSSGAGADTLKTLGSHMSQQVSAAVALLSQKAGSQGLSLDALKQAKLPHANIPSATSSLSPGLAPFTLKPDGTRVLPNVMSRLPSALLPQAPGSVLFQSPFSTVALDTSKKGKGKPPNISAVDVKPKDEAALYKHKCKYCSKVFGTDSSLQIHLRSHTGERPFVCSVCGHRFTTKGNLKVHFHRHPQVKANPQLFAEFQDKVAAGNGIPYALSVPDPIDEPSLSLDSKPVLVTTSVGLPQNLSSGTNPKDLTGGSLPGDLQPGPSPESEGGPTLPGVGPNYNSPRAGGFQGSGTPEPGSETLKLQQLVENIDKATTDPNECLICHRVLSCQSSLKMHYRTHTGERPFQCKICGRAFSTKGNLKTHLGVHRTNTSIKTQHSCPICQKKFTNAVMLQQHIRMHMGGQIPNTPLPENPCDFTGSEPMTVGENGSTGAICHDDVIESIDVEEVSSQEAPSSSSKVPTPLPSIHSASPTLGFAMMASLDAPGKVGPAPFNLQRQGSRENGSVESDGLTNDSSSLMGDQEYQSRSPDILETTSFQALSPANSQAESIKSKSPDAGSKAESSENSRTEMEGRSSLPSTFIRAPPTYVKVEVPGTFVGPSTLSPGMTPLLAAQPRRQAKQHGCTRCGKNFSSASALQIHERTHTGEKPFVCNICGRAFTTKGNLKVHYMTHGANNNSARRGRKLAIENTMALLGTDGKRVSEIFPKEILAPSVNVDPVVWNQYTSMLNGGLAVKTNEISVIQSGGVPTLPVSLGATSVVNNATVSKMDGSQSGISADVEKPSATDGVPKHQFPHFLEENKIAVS
From the text: as §1, §2

CRBN-ZFP91 interaction [3] = molecular target: T3, CRBN-ZFP91 interaction (Homo sapiens, UniProt Q96SW2); experiment: MAPPIT inverse assay, CRBN gp130 fusion + ZFP91 receptor fusion; set-up: expressed in transfected cells; host or cells: HEK293T; settings: inverse configuration; HEK293T cells; EPO; dose-response
From the text: as §1, §2
Target sequence in this assay (Q96SW2 whole entry, the tested form may be a part): as the sequence (Q96SW2 whole entry, the tested form may be a part, canonical isoform) above
Target sequence in this assay (Q96JP5 whole entry partner, the tested form may be a part): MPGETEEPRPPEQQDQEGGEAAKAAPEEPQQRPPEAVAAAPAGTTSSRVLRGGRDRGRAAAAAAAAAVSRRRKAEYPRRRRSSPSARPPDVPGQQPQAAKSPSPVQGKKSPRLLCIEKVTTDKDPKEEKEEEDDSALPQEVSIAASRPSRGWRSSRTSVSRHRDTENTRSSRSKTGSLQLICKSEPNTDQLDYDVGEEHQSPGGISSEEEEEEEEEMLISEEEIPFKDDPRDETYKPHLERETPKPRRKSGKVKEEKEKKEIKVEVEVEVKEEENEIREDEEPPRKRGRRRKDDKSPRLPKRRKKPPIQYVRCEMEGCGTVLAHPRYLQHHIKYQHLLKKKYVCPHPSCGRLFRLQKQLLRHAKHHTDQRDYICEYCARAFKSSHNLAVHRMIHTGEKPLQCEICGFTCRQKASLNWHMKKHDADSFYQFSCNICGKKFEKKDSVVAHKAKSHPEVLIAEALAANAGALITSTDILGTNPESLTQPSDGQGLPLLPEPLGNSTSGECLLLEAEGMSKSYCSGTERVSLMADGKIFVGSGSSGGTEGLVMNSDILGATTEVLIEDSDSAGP

CRBN-IKZF3 interaction = CRBN-IKZF3 interaction (Homo sapiens, UniProt Q96SW2); experiment: MAPPIT forward assay, CRBN receptor fusion + IKZF3 gp130 fusion; set-up: MAPPIT chimeric receptor (EPO receptor extracellular domain + signaling-deficient leptin receptor part); expressed in transfected cells; host or cells: HEK293T; settings: forward configuration; HEK293T cells; EPO; dose-response
Chain of CRBN-IKZF3 interaction (Q96SW2 whole entry, the tested form may be a part): as the sequence (Q96SW2 whole entry, the tested form may be a part, canonical isoform) above
From the text: as §1, §2

CRBN-ZFP91 interaction [4] = molecular target: T3, CRBN-ZFP91 interaction; experiment: MAPPIT forward assay, CRBN receptor fusion + ZFP91 gp130 fusion; set-up: MAPPIT chimeric receptor (EPO receptor extracellular domain + signaling-deficient leptin receptor part); expressed in transfected cells; host or cells: HEK293T; settings: forward configuration; HEK293T cells; EPO; dose-response
From the text: as §1, §2
Target sequence in this assay (Q96SW2 whole entry, the tested form may be a part): as the sequence (Q96SW2 whole entry, the tested form may be a part, canonical isoform) above

Structure (SMILES): O=C1CC[C@H](N2Cc3c(OCc4ccc(CN5CCOCC5)cc4)cccc3C2=O)C(=O)N1 [CC-220]
- compound-induced binding of IKZF1 to CRBN (luciferase reporter signal) (CRBN-IKZF1 interaction [1]): can be detected with both the forward and the inverse assay configuration
- compound-induced binding of IKZF1 to CRBN (luciferase reporter signal) (CRBN-IKZF1 interaction [2]): can be detected with both the forward and the inverse assay configuration
- compound-induced CRBN-CSNK1A1 interaction (CSNK1A1 neosubstrate recruitment) (CRBN-CSNK1A1 interaction): CSNK1A1 neosubstrate recruitment can be detected
- compound-induced binding of SALL4 to CRBN (luciferase reporter signal) (CRBN-SALL4 interaction): an interaction signal response could be detected
- compound-induced binding of ZFP91 to CRBN (luciferase reporter signal) (CRBN-ZFP91 interaction [3]): an interaction signal response could be detected
- compound-induced binding of IKZF3 to CRBN (luciferase reporter signal) (CRBN-IKZF3 interaction): only in the inverse assay setup an interaction signal response could be detected
- compound-induced binding of ZFP91 to CRBN (luciferase reporter signal) (CRBN-ZFP91 interaction [4]): only in the inverse assay setup an interaction signal response could be detected
